Measured values: patent publication US9790253B2, “OSW-1 analogs and conjugates, and uses thereof” (priority 2011, dated 2017)
“Also recorded” adds a separate entry of the source. Where two headings read alike, the source gives them in different places. Where a SMILES comes first, the peptide text is derived from it. The star is where a group is joined. Cbz = O=C(OCc1ccccc1)*

Columns and labels:
[1] = tested on: HCT-116 p21^−/− cells; test: cells; details: for GI50: Homo sapiens, HCT-116, 48 h, read-out: GI50 (nM) 48 h p21^−/−
Experimental: (§1) Cell viability assay. Cells were plated into 96-well plates in 75 μL of media. After 24 h, a time-zero plate was produced by adding 25 μL of media and 20 μL of CellTiter-Blue® (Promega) to the wells, followed by incubation at 37° C. for 90 min. Fluorescence (544 nm excitation; 590 nm emission) was detected using a SPECTRAmax® Gemini XS to establish cell viability at time of dosing. Then, compounds were serially diluted in media and delivered to the cells as 4× solutions in 25 μL of media. At either 48 h or 72 h, CellTiter-Blue® was added and the fluorescence was recorded as described above.
(§2) Tasdemir et al. (2002) J Nat Prod 65:210-4. GI50-values of the compounds were determined in HCT-116 p21^+/+ (wt) and p21^−/− cells after 48 h using a resazurin redox dye to measure cell viability.
(§3) Methods are described above in the General Methods section.

[2] = tested on: HCT-116 p21^+/+ (wt) cells; test: Growth inhibition (cell viability assay) of HCT-116 p21+/+ cells; details: for GI50: Homo sapiens
Experimental: as §1, §2, §3

[3] = tested on: A549 cells; test: cells; format: cell-based, human; details: for GI50: Homo sapiens, A549, 48 h, read-out: GI50 (nM) 48 h
Description: Methods are essentially as described above in the General Methods section in connection with assays using HCT-116 cells.

[4] = target: T1, OSBP1-myc-his (Homo sapiens, UniProt P22059); test: [3H]-25-hydroxycholesterol charcoal-dextran binding assay with OSBP1-myc-his
T1 construct: made in house; host or cells: HEK-293T (transient transfection; S100 lysate, not purified)
T1 sequence (P22059 1-807): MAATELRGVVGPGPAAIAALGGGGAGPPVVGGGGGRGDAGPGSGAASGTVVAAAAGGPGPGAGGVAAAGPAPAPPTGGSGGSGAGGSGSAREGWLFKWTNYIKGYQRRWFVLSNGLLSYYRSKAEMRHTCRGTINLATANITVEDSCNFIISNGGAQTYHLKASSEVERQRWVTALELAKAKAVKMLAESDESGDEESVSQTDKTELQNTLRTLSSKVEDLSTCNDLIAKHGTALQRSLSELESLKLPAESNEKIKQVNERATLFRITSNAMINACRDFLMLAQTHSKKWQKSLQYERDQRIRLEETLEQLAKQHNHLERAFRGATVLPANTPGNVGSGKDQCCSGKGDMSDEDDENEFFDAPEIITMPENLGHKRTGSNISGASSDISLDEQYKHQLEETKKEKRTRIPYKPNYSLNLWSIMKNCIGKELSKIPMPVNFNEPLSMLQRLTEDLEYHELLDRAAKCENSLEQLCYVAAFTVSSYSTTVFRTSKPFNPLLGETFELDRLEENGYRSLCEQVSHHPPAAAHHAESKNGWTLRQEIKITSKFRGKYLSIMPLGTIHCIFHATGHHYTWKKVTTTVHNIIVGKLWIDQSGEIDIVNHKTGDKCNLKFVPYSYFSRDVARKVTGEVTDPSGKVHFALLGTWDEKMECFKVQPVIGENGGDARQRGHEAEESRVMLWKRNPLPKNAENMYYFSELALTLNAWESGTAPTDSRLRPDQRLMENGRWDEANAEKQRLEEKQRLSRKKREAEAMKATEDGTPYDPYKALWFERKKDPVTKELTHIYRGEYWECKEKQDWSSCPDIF
Description: [^3H]-25-Hydroxycholesterol charcoal-dextran binding assay.
as §3

[5] = target: T2, ORP4L-myc-his (Homo sapiens, UniProt Q969R2); test: [3H]-25-hydroxycholesterol charcoal-dextran binding assay with ORP4L-myc-his
T2 sequence (Q969R2 1-916): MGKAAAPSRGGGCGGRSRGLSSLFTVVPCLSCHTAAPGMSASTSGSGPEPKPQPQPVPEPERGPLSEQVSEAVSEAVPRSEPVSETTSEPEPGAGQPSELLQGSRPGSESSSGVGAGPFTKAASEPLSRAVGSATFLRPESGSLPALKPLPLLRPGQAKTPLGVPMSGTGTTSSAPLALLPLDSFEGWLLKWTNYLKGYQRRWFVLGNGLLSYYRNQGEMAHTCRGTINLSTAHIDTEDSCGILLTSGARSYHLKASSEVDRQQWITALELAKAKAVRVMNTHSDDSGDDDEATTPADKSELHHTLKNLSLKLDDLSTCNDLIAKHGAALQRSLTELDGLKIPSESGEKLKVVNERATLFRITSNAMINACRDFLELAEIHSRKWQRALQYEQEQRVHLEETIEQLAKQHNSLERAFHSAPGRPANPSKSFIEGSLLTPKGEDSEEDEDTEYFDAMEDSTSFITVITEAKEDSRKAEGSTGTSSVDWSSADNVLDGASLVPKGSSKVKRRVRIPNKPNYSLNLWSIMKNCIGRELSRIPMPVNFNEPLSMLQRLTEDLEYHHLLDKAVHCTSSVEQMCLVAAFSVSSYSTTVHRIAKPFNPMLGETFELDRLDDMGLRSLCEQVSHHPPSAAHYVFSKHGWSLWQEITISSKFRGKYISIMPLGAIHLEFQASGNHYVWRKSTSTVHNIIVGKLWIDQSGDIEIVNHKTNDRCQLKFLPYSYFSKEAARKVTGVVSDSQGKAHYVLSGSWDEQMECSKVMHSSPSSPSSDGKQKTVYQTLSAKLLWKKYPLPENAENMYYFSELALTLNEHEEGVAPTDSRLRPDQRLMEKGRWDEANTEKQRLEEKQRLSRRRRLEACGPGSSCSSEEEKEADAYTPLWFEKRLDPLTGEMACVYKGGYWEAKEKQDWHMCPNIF
Experimental: [^3H]-25-Hydroxycholesterol charcoal-dextran binding assay. […] These vectors were transfected into HEK-293T cells using Lipofectamine™2000 (Invitrogen), and 48 h after transfection, on-plate lysis of the transfected cells with the M-Per®/HALT™ with EDTA (ThermoScientific) reagent was performed, followed by ultracentrifugation at 100,000 g. The S100 lysate was diluted to 0.2 mg/mL, aliquoted and stored at −80° C. until use. The HEK-293T OSBP1-, ORP4L- or lacZ-myc-his lysate was incubated with [^3H]-25-hydroxycholesterol at 4° C. for 16 h in 96-well plates. After incubation, charcoal/dextran (C/D) was added to the wells for 30 min of shaking at RT, followed by centrifugation for 15 min at 1900 g to pellet the C/D. The C/D-cleared lysate was added to MicroScint™-20 (PerkinElmer) scintillation fluid, and the remaining protein-bound radiolabel was quantified using a TopCount™ scintillation counter. [^3H]-25-hydroxycholesterol binding curves and competition curves were repeated at least three times.
Lysates were thawed on ice, with brief periods of hand warming. Both the ^3H-25-OHC direct binding assays and the ^3H-25-OHC competition binding assays were set up similarly, with a large stock of binding assay lysate being prepared, then 73.5 μL of the binding assay mixture dispensed using a multi-channel pipettor into “V”-shaped 96-well plates. For the ^3H-25-OHC direct binding assay, 1.5 μL of ^3H-25-OHC and ^3H-25-OHC/40×25-OHC added to the wells in dilutions in 100% ethanol. For the ^3H-25-OHC competition binding assays, ^3H-25-OHC was added to the large stock of binding assay lysate to a final concentration of 20 nM. This ^3H-25-OHC-containing binding lysate was then dispensed using a multi-channel pipettor into the 96-well plates. Then, 1.5 μL of a serial dilution of the inhibitors in either 100% ethanol (25-OHC) or DMSO (the ORPphilins) was added to each well.
The binding lysate used in each well of the 96-well plate consisted of 60 μL of 0.2 mg/mL S100 lysate, 7.5 μL 20% PVA, and 5.6 μL 2M KCl. For ^3H-25-OHC binding curve experiments, 0.4 μL of buffer was then added (total volume per well: 73.5 μL). For the ^3H-25-OHC inhibition competition assays, 0.11 μL of 13.2 μM ^3H-25-OHC and 0.29 μL binding buffer was added for each well (total volume per well: 73.5 μL).
Binding assays were incubated, standing, for 16 h at 4° C. Then 30 μL of the rt C/D solution was multichannel pipetted into new “V’ shaped 96-well plates, and 60 μL of the binding lysate mixture was then added. The plates were briefly, lightly vortexed (˜10 sec), 10 and then rocked at 250 rpm for 30 min at rt. The plates were then centrifuged at 1900 g for 15 min at 4° C. in Microplate Carriers (Sorvall cat. #75006449S) in a Sorvall Legend RT centrifuge. Carefully so as to not disturb the C/D pellet, 30 μL of the supernatant was transferred to 170 μL of Microscint-20 in the OptiPlates. The plates were sealed with the TopSealA-Films, and vigorously vortexed (max speed, >1 min). ^3H-25-OHC detection in the wells was then performed using a TopCount Scintillation detector, counting each well for 2 min. Data was graphed and analyzed using GraphPad PrismS, using non-linear regression to determine KD and K1 values.
Binding experiments were performed at 4° C. for 16 h. Unbound sterol was removed using dextran-coated charcoal, and protein-bound sterol left in the supernatant was quantified by scintillation counting. Ki-values were determined as mean±s.d. from at least three independent experiments.

[6] = tested on: HCT-116 cells; test: Growth inhibition with 25-OHC co-administration; format: cell-based, human; details: 10 μM 25-OHC for 1 and 2
Experimental: 25-OHC (11) is a high-affinity ligand of OSBP1 and ORP4L that is not cytotoxic at concentrations up to 10 μM. Example 1 established that the ORPphilins compete with 25-OHC for binding to OSBP1 and ORP4L (FIG. 2D,E). Therefore, if OSBP1 and ORP4L mediate the biological activities of these compounds, co-administration of sub-lethal doses of 25-OHC with the ORPphilins should inhibit binding of the ORPphilins to OSBP1 and ORP4L, thereby desensitizing cells to the cytotoxic effects of the ORPphilins.

[7] = target: T3, OSBP1 protein levels in HCT-116 cells (Homo sapiens, UniProt P22059); test: OSBP1 protein levels by western blotting; format: cell-based; details: for block of OSBP1 degradation by 1 and 2: co-administered with 1 and 2; for effect on OSBP1 levels, compound alone: concentration not given
T3 construct: endogenous in cells; host or cells: HCT-116
T3 sequence (P22059 1-807): T1 sequence (P22059 1-807)
Experimental: A possible explanation for this observation was that treatment with 1 and 2 caused a decrease in OSBP1 levels. Treatment of HCT-116 cells with vehicle (DMSO) or 25-OHC (10 μM) had no effect on OSBP1 levels, as assessed by western blotting (FIG. 6A). However, treatment with 1 or 2 induced a dramatic, time-dependent reduction of OSBP1 levels (FIG. 6A). For example, 50 nM of 1 or 10 nM of 2 caused an approximately 75% reduction in OSBP1 protein levels at 24 h in HCT-116 cells (FIG. 6A), with a similar effect recorded in A549 cells. […] OSBP1 levels were determined using both an antibody recognizing the far N-terminus of OSBP1 (FIG. 6) and also an antibody recognizing the C-terminus of OSBP1.
One possible explanation for the reduction in OSBP1 levels upon treatment with 1 and 2 was proteasome-dependent degradation. To determine whether degradation of OSBP1 was proteasome dependent, proteasome inhibitors MG-132 or lactacystin were co-administered with 1 and 2. […] Similar results were obtained in A549 cells.

[8] = HCT-116, 48 h, read-out: GI50 (nM) 48 h p21^+/+
[9] = competition with 20 nM [3H]-25-OHC, HEK-293T S100 lysate, 4° C., 16 h

Row | Structure (SMILES) | GI50 [1] | GI50 [2, 8] | GI50 [3] | Ki [4] | Ki [5] | further results
1 | COc1ccc(C(=O)OC2C(OC3C(O)COC(O[C@H]4C[C@H]5[C@@H]6CC=C7C[C@@H](OC(=O)NCCCCCCNC(=O)OCC8c9ccccc9-c9ccccc98)CC[C@]7(C)C6CC[C@]5(C)[C@@]4(O)[C@H](C)C(=O)CCC(C)C)C3OC(C)=O)OCC(O)C2O)cc1 (stereo partly drawn) [Compound 102] | 97 nM | 85 nM |  |  |  | 
2 | C=CCOC(=O)NCCCCCCNC(=O)O[C@H]1CC[C@@]2(C)C(=CC[C@@H]3C2CC[C@@]2(C)[C@H]3C[C@H](OC3OCC(O)C(OC4OCC(O)C(O)C4O)C3O)[C@]2(O)[C@H](C)C(=O)CCC(C)C)C1 (stereo partly drawn) [Compound 104] | 525 ± 4 nM | > 2700 nM |  |  |  | 
3 | C=CCOC(=O)NCc1ccc(CNC(=O)OC2COC(OC3C(O)COC(O[C@H]4C[C@H]5[C@@H]6CC=C7C[C@@H](O)CC[C@]7(C)C6CC[C@]5(C)[C@@]4(O)[C@H](C)C(=O)CCC(C)C)C3OC(C)=O)C(OC(=O)c3ccc(OC)cc3)C2O)cc1 (stereo partly drawn) [Compound 6c] | 2.2 ± 0.5 nM | 17 ± 4 nM | 2.9 ± 0.9 nM | 46 ± 11 nM | 150 ± 50 nM | 
4 | C[C@H]1CCC/C=C/[C@@H]2C[C@H](O)C[C@H]2[C@H](O)/C=C/C(=O)O1 [brefeldin A] |  |  |  |  |  | effect of 25-OHC co-administration on the antiproliferative activity [6]: did not affect
5 | CC(=O)OC1C(O[C@H]2C[C@H]3[C@@H]4CC=C5C[C@@H](O)CC[C@]5(C)C4CC[C@]3(C)[C@@]2(O)[C@H](C)C(=O)CCC(C)C)OCC(O)C1OC1OCC(O)C(O)C1O (stereo partly drawn) [Compound 7] | 17 ± 2 nM | 120 ± 40 nM | 41 ± 25 nM | 63 ± 12 nM | 120 ± 31 nM | 
6 | C=CCOC(=O)NCc1ccc(CNC(=O)OC2C(O)COC(OC3C(O)COC(O[C@H]4C[C@H]5[C@@H]6CC=C7C[C@@H](O)CC[C@]7(C)C6CC[C@]5(C)[C@@]4(O)[C@H](C)C(=O)CCC(C)C)C3OC(C)=O)C2OC(=O)c2ccc(OC)cc2)cc1 (stereo partly drawn) [Compound 6a] | 0.08 ± 0.02 nM | 0.6 ± 0.13 nM | 0.1 ± 0.04 nM | 18 ± 5 nM | 43 ± 9 nM | p21−/− selectivity of growth inhibition (HCT-116 p21−/− versus wt) ([1]; 48 h): commensurate with that of 2; antiproliferative potency relative to 2 [2]: maintained the antiproliferative potency of 2
7 | C=CCOC(=O)NCCCCCCNC(=O)O[C@H]1CC[C@@]2(C)C(=CC[C@@H]3C2CC[C@@]2(C)[C@H]3C[C@H](OC3OCC(O)C(OC4OCC(O)C(O)C4OC(=O)c4ccc(OC)cc4)C3OC(C)=O)[C@]2(O)[C@H](C)C(=O)CCC(C)C)C1 (stereo partly drawn) [Compound 103] | 138 ± 16 nM | 172 ± 2 nM |  |  |  | 
8 | CC(=O)N[C@@H](CSC(=O)[C@]1([C@@H](O)C(C)C)NC(=O)[C@H](C)[C@@H]1O)C(=O)O [lactacystin] |  |  |  |  |  | block of OSBP1 degradation by 1 and 2 [7]: completely blocked; effect on OSBP1 levels, compound alone [7]: did not affect
9 | CC(C)CCC(=O)[C@@H](C)[C@@]1(O)[C@@H](OC2OCC(O)C(OC3OCC(O)C(O)C3O)C2O)C[C@H]2[C@@H]3CC=C4C[C@@H](O)CC[C@]4(C)C3CC[C@@]21C (stereo partly drawn) [Compound 8] | 220 ± 60 nM | 1400 ± 400 nM | 570 ± 250 nM | 170 ± 7 nM | 760 ± 200 nM | 
10 | C=CCOC(=O)NCc1ccc(CNC(=O)O[C@H]2CC[C@@]3(C)C(=CC[C@@H]4C3CC[C@@]3(C)[C@H]4C[C@H](OC4OCC(O)C(OC5OCC(O)C(O)C5O)C4O)[C@]3(O)[C@H](C)C(=O)CCC(C)C)C2)cc1 (stereo partly drawn) [Compound 20] | 550 ± 300 nM | 6500 ± 3600 nM |  |  |  | 
11 | C=CCOC(=O)NCc1ccc(CNC(=O)O[C@H]2CC[C@@]3(C)C(=CC[C@@H]4C3CC[C@@]3(C)[C@H]4C[C@H](OC4OCC(O)C(OC5OCC(O)C(O)C5OC(=O)c5ccc(OC)cc5)C4OC(C)=O)[C@]3(O)[C@H](C)C(=O)CCC(C)C)C2)cc1 (stereo partly drawn) [Compound 106] | 5 ± 3 nM | 91 ± 10 nM |  |  |  | 
12 | COc1ccc(C(=O)OC2C(OC3C(O)COC(O[C@H]4C[C@H]5[C@@H]6CC=C7C[C@@H](O[Si](C)(C)C(C)(C)C)CC[C@]7(C)C6CC[C@]5(C)[C@@]4(O)[C@H](C)C(=O)CCC(C)C)C3OC(C)=O)OCC(O)C2O)cc1 (stereo partly drawn) [Compound 108, 3-(tert-Butyldimethylsilyl)-OSW-1] | 720 ± 90 nM | 2300 ± 200 nM | 1600 ± 500 nM |  |  | fold less cytotoxic than 2 in HCT-116 p21−/− cells [1]: 2100 fold; fold less cytotoxic than 2 in A549 cells [3]: 700 fold; fold less active than OSW-1 (2) in HCT-116 cells [2]: ca. 1,400 fold; GI50 ([2]; HCT-116, read-out: GI50 in HCT-116 cells): 2300 nM; [^3H]-25-OHC K1 (nM) OSBP1-myc-his [4, 9]: None detected; competition with [3H]-25-OHC for binding to OSBP1 ([4]; listed as 9): did not compete; also recorded: does not bind; [^3H]-25-OHC K1 (nM) ORP4L-myc-his [5, 9]: None detected; competition with [3H]-25-OHC for binding to ORP4L ([5]; listed as 9): did not compete; also recorded: does not bind
13 | CC(C)C[C@@H](C=O)NC(=O)[C@H](CC(C)C)NC(=O)[C@H](CC(C)C)NC(=O)OCc1ccccc1 [MG-132] (Cbz-Leu-Leu-Leu-aldehyde) |  |  |  |  |  | block of OSBP1 degradation by 1 and 2 [7]: completely blocked; effect on OSBP1 levels, compound alone [7]: did not affect
